In patent publication US9464093B2, “Substituted imidazo[4',5':4,5]cyclopenta[1,2-e]pyrrolo[1,2-a]pyrazines and oxazolo[4',5':4,5]cyclopenta[1,2-e]pyrrolo[1,2-a]pyrazines for treating brain cancer” (Mayo Foundation for Medical Education and Research, priority 2012, dated 2016):
Entries after “also recorded” stand apart in the source; their conditions may differ. Where two headings read alike, the source gives them in different places.

How the values were obtained:
MB-453 = assay: Cell proliferation assay MB-453 (Example 6); format: cell-based; settings: cells counted on the sixth day
Experimental: In-vitro assays were performed to assess the cytotoxic impact of AA analogues on breast cancer cell lines (MB-468, MB-453, and T47D), lymphoma cell lines (Raji and OCI-LY10), and glioblastoma multiforme cell line (U87). The three breast cancer cell lines represent three subtypes of breast cancer: triple-negative (MB-468), Her2-positive (MB-453), and hormone receptor positive (T47D).
The IC50 values obtained for each compound represents the concentration of the tested compound that is needed to decrease the cancer cell count by 50%. Cancer cells were seeded in triplicate at 50,000 cells per well of a 24-well plate in 0.5 ml medium. […] Cells were harvested and counted on the sixth day using a Beckman Coulter counter.

[1] = system: MB-468 (triple-negative breast cancer cells); assay: Cytotoxicity, cell count, MB-468 (Example 4); settings: read-out: Cytotoxicity (IC50, μM) MB-468
Experimental: Raji cells and MB-468 cells were purchased from American Tissue Culture (Manassas, Va.). […] Cells were harvested and counted on the third day in a Coulter Particle Counter (Beckman-Coulter Corp.: Brea, Calif.). IC50 values were calculated using GraphPad Prism 5 (GraphPad Software Inc., La Jolla, Calif.).

[2] = system: OCI-LY10 B lymphoma cells; assay: OCI-LY10 orthotopic murine CNS lymphoma model; format: in vivo; settings: for Median Survival (Day) CNS Lymphoma (OCI-LY10): control 35; for survival (Kaplan-Meier) vs control, OCI-LY10 model / tumor growth (BLI) vs control, OCI-LY10 model: all treatment groups (2.5 or 5 mg/kg i.p. daily for 4 days); for tolerability, OCI-LY10 model: both dose levels (2.5 and 5 mg/kg)
Experimental: Female athymic mice (8-10 weeks old and weighing 20-25 g at the beginning of the study) were purchased from Harlan laboratories (Indianapolis, Ind.). They were housed in a temperature-controlled sterilized room (23±2° C.) with a 12-h light/dark cycle and free access to food and water throughout the study.
Murine brain tumor models were created by intracerebral injection of luciferase-transfected cancer cells in athymic mice under anesthesia using a stereotactic platform. For murine model for CNS lymphoma, 1×10^5 OCI-LY10 B lymphoma cells were used. For murine model for metastatic breast cancer of the brain (MBCB), 1×10^5 MB-468 triple-negative breast cancer cells were used. For murine model for glioblastoma multiforme (GBM), 1.75×10^5 U87 cells were used. Eight-week-old athymic mice underwent a minimum 7-day acclimation/quarantine prior to surgery. Surgery was performed in a laminar flow hood under sterile conditions. Tylenol 300 mg/kg PO was given for analgesia 48 hours before the surgery and continuing 48 hours postoperatively. Anesthesia was achieved by inhalation of 1-2% isoflurane. After the mouse became well anesthetized, it was placed in the Kopf stereotactic instrument. A small amount of BNP antibiotic cream (a mixture of Bacitracin, Neomycin and Polymyxin) was smeared on its eyes to prevent infection and corneal damage during surgery. A strip of soft fabric was placed over the mouse's body and tail to prevent excessive heat loss during surgery. The scalp area was cleaned with a 2% solution of Betadine and dried with cotton tipped applicator. A midline sagittal incision was made in the scalp. A small burr hole was drilled in the left skull with a surgical drill (Kopf) or a Dremel drill according to the coordinates (AP: 0.5 mm, LM: 2.5 mm) as determined by reference to the mouse brain atlas by Franklin and Paxinos. The dura mater was surgically exposed, and a 10 μl Hamilton syringe with a 26S-gauge beveled needle was lowered into the left cerebral hemisphere up to a depth of 3 mm and 5 μl of tumor cells were slowly infused (0.5 μl/min). The needle was left in place for 5 minutes to prevent reflux and then was slowly removed. The skin was closed with wound clips. The mice recovered from anesthesia and surgery in a warm environment and were not returned to their cages until motor activity returned. Cages were placed on top of a heating pad to minimize the loss of body heat during the recovery. The mice were monitored post-operatively at least twice a day for 5 days or until recovery was complete.
BLI was used to assess the impact of the treatments on the brain tumor growth. After intracerebral injection of cancer cells, all the mice were subjected to bioluminesence imaging (BLI) twice a week starting at day-4 post-intracerebral injection to monitor the real-time in vivo tumor growth. BLI was conducted using a Xenogen Lumina optical imaging system (Caliper Life Sciences, Hopkinton, Mass.). Mice were anesthetized with isofluorane before intraperitoneal injections of luciferin at a dose of 150 mg/kg, providing a saturating substrate concentration for luciferase enzyme. Peak luminescent signals were recorded 10 minutes after luciferin injection. Regions of interest encompassing the intracranial area of signal were defined using Living Image software (Xenogen, Alameda, Calif.), and the total photons/s/steradian/cm2 was recorded.
Five mice each were assigned to one of seven treatment groups or one vehicle control group for all three brain tumor models. Mice in experimental groups received either 2.5 mg/kg or 5 mg/kg of AA, CEAA, or DCEAA by intraperitoneal route daily for 4 days. For CAA, only 2.5 mg/Kg by intraperitoneal route daily for 4 days was used. The control group received DMSO by intraperitoneal route for 4 days. The end point for the survival analysis was the development of limb paralysis. Animals were checked at least twice per day. Animals that reached the end point were sacrificed by CO2 anesthesia. […]

[3] = 2.5 mg/kg intraperitoneal daily for 4 days
[4] = 5 mg/kg intraperitoneal daily for 4 days

SMILES | IC50 (MB-453) [nM] | IC50 ([1]; cells counted on the third day) [µM] | Median Survival (Day) CNS Lymphoma (OCI-LY10) [2, 3] [days] | weight loss, OCI-LY10 model ([2]; 5 mg/kg dose level) | Median Survival (Day) CNS Lymphoma (OCI-LY10) [2, 4] [days] | survival (Kaplan-Meier) vs control, OCI-LY10 model [2] | tumor growth (BLI) vs control, OCI-LY10 model [2] | IC50 [1] [µM] | weight loss, OCI-LY10 model ([2]; 2.5 mg/kg) | tolerability, OCI-LY10 model [2]
CN1C(=O)N[C@H]2[C@@H]3NC(=O)c4ccc(Br)n4[C@@H]3C[C@]21O [AA, agelastatin A, reference compound] | 644 | 2.8 | 48.5 | Some weight loss | 46 | significantly prolonged survival; also recorded: prolongation of survival | significantly decreased tumor growth; also recorded: significantly slower |  |  | 
CN1C(=O)N[C@H]2[C@@H]3NC(=O)c4ccc(Cl)n4[C@@H]3C[C@]21O [CAA, chloroagelastatin A] | 91.9 |  | 49 |  |  | significantly prolonged survival; also recorded: prolongation of survival | significantly decreased tumor growth; also recorded: significantly slower | 0.08 | Some weight loss | 
CCN1C(=O)N[C@H]2[C@@H]3NC(=O)c4ccc(Cl)n4[C@@H]3C[C@]21O [CEAA, chloroethylagelastatin A] | 141 |  | 57 |  | 65 | significantly prolonged survival; also recorded: prolongation of survival | significantly decreased tumor growth; also recorded: significantly slower | 0.28 |  | well tolerated
CCN1C(=O)N[C@H]2[C@@H]3NC(=O)c4cc(Cl)c(Cl)n4[C@@H]3C[C@]21O [DCEAA, dichloroethylagelastatin A] | 104 |  | 60 |  | 69 | significantly prolonged survival; also recorded: prolongation of survival | significantly decreased tumor growth; also recorded: significantly slower | 0.44 |  | well tolerated
